In US20040253665A1, “Novel peptide-producing enzyme, microbe producing the enzyme and method for dipeptide synthesis using them” (AJINOMOTO CO., INC., priority 2002, published 2004):
Residues, ends and D or L forms follow the SMILES beside them.

B1: Papain: thiol endopeptidase described in EP 359399B1, purified enzyme manufactured by Sigma (protein, UniProt P00784 134-345, looked up)
Papain: IPEYVDWRQKGAVTPVKNQGSCGSCWAFSAVVTIEGIIKIRTGNLNEYSEQELLDCDRRSYGCNGGYPWSALQLVAQYGIHYRNTYPYEGVQRYCRSREKGPYAAKTDGVRQVQPYNEGALLYSIANQPVSVVLEAAGKDFQLYRGGIFVGPCGNKVDHAVAAVGYGPNYILIKNSWGTGWGENGYIRIKRGTGNSYGVCGLYTSSFYPVKN
B2: Carboxypeptidase Y: known enzyme described in EP 278787A1, purified enzyme manufactured by Sigma (protein, UniProt P00729 112-532, looked up)
Carboxypeptidase Y: KIKDPKILGIDPNVTQYTGYLDVEDEDKHFFFWTFESRNDPAKDPVILWLNGGPGCSSLTGLFFELGPSSIGPDLKPIGNPYSWNSNATVIFLDQPVNVGFSYSGSSGVSNTVAAGKDVYNFLELFFDQFPEYVNKGQDFHIAGESYAGHYIPVFASEILSHKDRNFNLTSVLIGNGLTDPLTQYNYYEPMACGEGGEPSVLPSEECSAMEDSLERCLGLIESCYDSQSVWSCVPATIYCNNAQLAPYQRTGRNVYDIRKDCEGGNLCYPTLQDIDDYLNQDYVKEAVGAEVDHYESCNFDINRNFLFAGDWMKPYHTAVTDLLNQDLPILVYAGDKDFICNWLGNKAWTDVLPWKYDEEFASQKVRNWTASITDEVAGEVKSYKHFTYLRVFNGGHMVPFDVPENALSMVNEWIHGGFSL

Test system: enzyme (SP-Sepharose HP fraction) derived from Sphingobacterium sp. strain FERM BP-8124
Experiment: not given
Assay type: biochemical
Conditions: Table 15-3; carboxy component 100 mM, amine component 150 mM, 0.33 units enzyme, pH 9.0, 25° C., 1.5 hours
Method: Substrate specificity was examined for enzyme derived from Sphingobacterium sp. strain FERM BP-8124 (Depositary institution: National Institute for Advanced Industrial Science and Technology, International Patent Organism Depositary, Address of depositary institution: Central. 6, 1-1-1 Higashi, Tsukuba City, Ibaraki Prefecture, Japan, International deposit date: Jul. 22, 2002). 100 μl of 100 mM borate buffer (pH 9.0) containing the various carboxy components at a final concentration of 100 mM and the various amine components at a final concentration of 150 mM shown in Tables 15-1 to 15-4, the SP-Sepharose HP fraction enzyme purified in Example 22 (addition of 0.33 units in the reaction liquid) and 10 mM EDTA were allowed to react at 25° C. for 1.5 hours. […] In addition, hydrochlorides were used for all carboxy components.
Substrate specificity with respect to oligopeptide production was examined for enzyme derived from Sphingobacterium sp. strain FERM BP-8124 (Depositary institution: National Institute for Advanced Industrial Science and Technology,.International Patent Organism Depositary, Address of depositary institution: Chuo Dai-6, 1-1 Higashi 1-Chome, Tsukuba-shi, Ibaraki-ken, Japan, International deposit date: Jul. 22, 2002). A 100 μl aliquot of 100 mM borate buffer (pH 9.0) containing the various carboxy components at a final concentration of 100 mM and the various amine components at a final concentration of 150 mM shown in Table 16, the SP-Sepharose HP fraction enzyme purified in Example 22 (addition of 0.33 units in the reaction liquid) and 10 mM EDTA were allowed to react for 1.5 hours at 25° C. Furthermore, hydrochloride salts were used for all carboxy components.

| Produced peptide | Molecule |
| --- | --- |
| 5.1 mM | CC[C@H](C)[C@H](N)C(=O)N[C@@H](CCSC)C(=O)O [L-Ile-L-Met] (H-Ile-Met-OH) |
| 8.9 mM | CSCC[C@H](N)C(=O)N[C@@H](Cc1ccccc1)C(=O)O [L-Met-L-Phe] (H-Met-Phe-OH) |
| 9.9 mM | N[C@@H](CO)C(=O)N[C@@H](CO)C(=O)O [L-Ser-L-Ser] (H-Ser-Ser-OH) |
| 15.3 mM | CC(C)C[C@H](NC(=O)[C@@H](N)[C@@H](C)O)C(=O)O [L-Thr-L-Leu] (H-Thr-Leu-OH) |
| 6.8 mM | CSCC[C@H](NC(=O)[C@@H](N)C(C)C)C(=O)O [L-Val-L-Met] (H-Val-Met-OH) |

Test system: Empedobacter brevis strain FERM BP-8113 microbial cells
Experiment: Production of peptide using microbial cells of Empedobacter brevis
Assay type: cell-based
Conditions: microbial cell suspension 100 g/L mixed 1:1 with 200 mM carboxy component and 400 mM amino acid, pH 9.0, 10 mM EDTA, 18° C., 2 hours
Method: A 50 mL medium (pH 6.2) containing 5 grams (hereinafter, “g”) of glucose, 5 g of ammonium sulfate, 1 g of monopotassium phosphate, 3 g of dipotassium phosphate, 0.5 g of magnesium sulfate, 10 g of yeast extract and 10 g of peptone in 1 liter (hereinafter, “L”) was transferred to a 500 mL Sakaguchi flask and sterilized at 115° C. for 15 minutes. This medium,was then inoculated with one loopful of the culture broth of Empedobacter brevis strain FERM BP-8113 (Depositary institution: National Institute for Advanced Industrial Science and Technology, International Patent Organism Depositary, Address of depositary institution: Chuo Dai-6, 1-1 Higashi 1-Chome, Tsukuba-shi, Ibaraki-ken, Japan, International deposit transfer date: Jul. 8, 2002) that had been cultured at 30° C. for 16 hours in the same medium, followed by shake culturing at 30° C. for 16 hours and 120 strokes/min.

| Molecule | Produced peptide |
| --- | --- |
| CC[C@H](C)[C@H](N)C(=O)N[C@@H](CCSC)C(=O)O [L-Ile-L-Met] (H-Ile-Met-OH) | 8.3 mM |
| CSCC[C@H](N)C(=O)N[C@@H](Cc1ccccc1)C(=O)O [L-Met-L-Phe] (H-Met-Phe-OH) | 28.5 mM |
| N[C@@H](CO)C(=O)N[C@@H](CO)C(=O)O [L-Ser-L-Ser] (H-Ser-Ser-OH) | 29.0 mM |
| CC(C)C[C@H](NC(=O)[C@@H](N)[C@@H](C)O)C(=O)O [L-Thr-L-Leu] (H-Thr-Leu-OH) | 23.0 mM |
| CSCC[C@H](NC(=O)[C@@H](N)C(C)C)C(=O)O [L-Val-L-Met] (H-Val-Met-OH) | 10.5 mM |

Test system: peptide-producing enzyme (Mono S fraction) from Empedobacter brevis strain FERM BP-8113
Experiment: Enzyme substrate specificity (1)-(10), (13), (14)
Assay type: biochemical
Conditions: L-amino acid methyl ester hydrochloride 100 mM, L-amino acid 150 mM, pH 9.0, 25° C., 3 hours
In short: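 Mono S-purified peptide-forming enzyme from Empedobacter brevis FERM BP-8113, given L-amino acid esters (hydrochlorides) or amides as carboxy component with amino acids, C-protected amino acids, methylamine, β-amino acids or peptides as amine component. Dipeptide/oligopeptide product quantified; Tween-80 0.1% added with L-Trp-OMe.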

| Produced peptide | Molecule |
| --- | --- |
| 10.0 mM | CC[C@H](C)[C@H](N)C(=O)N[C@@H](CCSC)C(=O)O [L-Ile-L-Met] (H-Ile-Met-OH) |
| 34.0 mM | CSCC[C@H](N)C(=O)N[C@@H](Cc1ccccc1)C(=O)O [L-Met-L-Phe] (H-Met-Phe-OH) |
| 38.0 mM | N[C@@H](CO)C(=O)N[C@@H](CO)C(=O)O [L-Ser-L-Ser] (H-Ser-Ser-OH) |
| 28.4 mM | CC(C)C[C@H](NC(=O)[C@@H](N)[C@@H](C)O)C(=O)O [L-Thr-L-Leu] (H-Thr-Leu-OH) |
| 10.3 mM | CSCC[C@H](NC(=O)[C@@H](N)C(C)C)C(=O)O [L-Val-L-Met] (H-Val-Met-OH) |

Test system: not listed separately
Experiment: Comparison of ability to catalyze peptide production with known enzymes
Assay type: biochemical
Conditions: 100 mM L-alanine methyl ester, 200 mM L-glutamine, borate buffer pH 9.0, 25° C.; enzyme amount as in Table 14

| L-Ala-L-Gln production rate | Molecule |
| --- | --- |
| 0.0062 mM/min | Bromelain |
| 0.0100 mM/min | Chymopapain: thiol endopeptidase described in EP 359399B1, purified enzyme manufactured by Sigma |
| 0.0096 mM/min | Ficin |
| 0.0106 mM/min | B1 |
| 0.0257 mM/min | B2 |

Same assay, conditions: enzyme of present invention = 100.0

| Ratio of L-Ala-L-Gln production rate per enzyme unit weight | Molecule |
| --- | --- |
| 0.0010 | Bromelain |
| 0.0013 | Chymopapain: thiol endopeptidase described in EP 359399B1, purified enzyme manufactured by Sigma |
| 0.0017 | Ficin |
| 0.0021 | B1 |
| 0.0191 | B2 |
